Laboratory results from patent US8735387B2, “Oxazolopyrimidines as Edg-1 receptor agonists” (Sanofi, priority 2008, dated 2014).

Each compound was assayed against T1, human Edg-1 receptor (Homo sapiens, UniProt P21453) (assay: GTP-γ-S assay using human Edg-1 receptors (scintillation proximity assay, membrane preparation from CHO Flp-In cell line)). Conditions: example compound at 10 μM; relative to 10 μM S1P; GTP-γ-S SPA, human Edg-1 membranes.
T1 construct: expressed in transfected cells; membrane preparation
Assay type: biochemical
Text: Determination of the Pharmacological Activity A) GTP-γ-S Assay Using Human Edg-1 Receptors
In order to determine the Edg-1 receptor activation by the compounds of the invention, a GTP-γ-S (guanosine 5′-[γ-thio]triphosphate) assay for G-protein coupled receptor binding based on the scintillation proximity assay principle was used, employing a cell membrane preparation from a CHO Flp-In cell line which constitutively overexpresses the human Edg-1 receptor.
The Flp-In™ expression system (Invitrogen, cat. no. K6010-01) allows the generation of stable mammalian cell lines into which the gene of interest has been integrated through homologous recombination at a specific genomic location called Flp Recombination Target (FRT) site by means of a Flp recombinase encoded by the pOG44 expression plasmid. The integration of the pcDNA5/FRT expression construct into the Flp-In host cell line genome results in the transcription of the gene of interest. The stably transfected cells become hygromycin-resistant.
One day prior to transfection, 200 000 Flp-In-CHO cells were seeded in Ham F-12 medium (Invitrogen, cat. no. 31765) supplemented with 10% fetal calf serum (FCS; Perbio Science, cat. no. SH30068.03) in a 6-well plate and incubated at 37° C./5% CO2 overnight. Using the FuGENE® 6 transfection reagent (Roche, cat. no. 11988387001), cells were cotransfected with the Flp recombinase expression plasmid pOG44 and a modified plasmid additionally containing the edg-1 gene (accession no. NM_001400) termed as pcDNA5-FRT-TO_nFLAG_DEST-EDG-1 with a 9:1 ratio. To obtain the modified pcDNA5-FRT-TO_nFLAG_DEST plasmid, the Invitrogen plasmid pcDNA5/FRT/TO (Invitrogen, cat. no. V6520-20) was adapted to the Gateway® (Invitrogen) cloning system by inserting a Gateway cassette containing attR recombination sites flanking a ccdB gene and a chloramphenicol-resistance gene (Gateway conversion system, Invitrogen, cat. no. 11828-029). In addition a FLAG tag epitope was added before the 5′ att recombination site to allow recombinant expression of N-terminally FLAG-tagged proteins.
For the transfection of one well, 1.08 μg of pOG44 and 0.12 μg of pcDNA5-FRT-TO_nFLAG_DEST-EDG-1 were mixed to 100 μl of serum-free Ham F-12 medium containing 6 μl of FuGENE® 6 transfection reagent. After 20 min of incubation, the transfection reagent/DNA complex was distributed dropwise on the cells. The cells were incubated for 24 h at 37° C. Then the cells from 3 wells each were transferred to a T75 flask (Greiner Cellstar®, cat. no. 658175) containing Ham F-12 medium supplemented with 10% of FCS but without antibiotic and were incubated another 24 h. 48 h after transfection, the medium was replaced by selection medium (Ham F-12 supplemented with 10% of FCS and 300 μg/ml of hygromycin B (Invitrogen, cat. no. 10687-010)). The medium was exchanged every 2 to 3 days until a resistant population of cells had grown. […] After 2 weeks of selection, the cells were transferred into T175 flasks (Greiner Cellstar®, cat. no. 660175) and cultivated for batch production. Cells were harvested from the culture flasks by short treatment (2 to 5 min) with Accutase (PAA, cat. no. L11-007), resuspended in selection medium (see above) and centrifuged at 200×g for 5 min. Cells were resuspended in a mixture of 90% of FCS and 10% of dimethylsulfoxide and stored frozen in liquid nitrogen.
A membrane preparation was obtained by standard methods from the afore-described CHO Flp-In cell line constitutively overexpressing the human Edg-1 receptor. Briefly, the cryopreserved cells were taken in culture and grown until confluency in T175 cell culture flasks (Becton Dickinson, cat. no. 35 5001). […]

T1 sequence (P21453 whole entry): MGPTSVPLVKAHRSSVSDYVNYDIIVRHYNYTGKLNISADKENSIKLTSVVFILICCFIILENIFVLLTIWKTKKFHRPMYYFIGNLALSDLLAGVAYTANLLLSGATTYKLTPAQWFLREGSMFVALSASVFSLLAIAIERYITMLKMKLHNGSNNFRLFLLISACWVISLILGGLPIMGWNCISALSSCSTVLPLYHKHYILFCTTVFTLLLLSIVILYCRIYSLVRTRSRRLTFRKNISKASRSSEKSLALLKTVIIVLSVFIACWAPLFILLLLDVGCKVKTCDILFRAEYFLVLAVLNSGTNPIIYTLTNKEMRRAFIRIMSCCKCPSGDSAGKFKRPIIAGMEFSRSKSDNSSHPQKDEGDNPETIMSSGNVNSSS

| % Activation (Edg-1 receptor activation in percent of the activation by 10 μM S1P) [%] | SMILES |
| --- | --- |
| 85 | C=CCOc1nc(Cc2ccc(Cl)c(Cl)c2)nc2oc(-c3cccc(F)c3)nc12 [Example 141] |
| 102 | CCCOc1nc(CN2CCC(F)(F)CC2)nc2oc(-c3cccc(Cl)c3)nc12 [Example 28] |
| 120 | CCCOc1nc(CN2CCCOCC2)nc2oc(-c3c(F)ccc(F)c3F)nc12 [Example 86] |
| 78 | CCCOc1nc(CN2CCC(=O)C(C(=O)OC)C2)nc2oc(-c3cccc(F)c3)nc12 (stereo not drawn) [Example 134] |
| 146 | CCOc1nc(Cc2ccc(Cl)cc2)nc2oc(-c3cc(C)c(OCCCNCCc4nc(O)n[nH]4)c(C)c3)nc12 [Example 285] |
| 110 | CCOc1nc(Cc2ccc(Cl)cc2)nc2oc(-c3cccnc3)nc12 [Example 128] |
| 67 | CCCOc1nc(CN2CCC(OC)CC2)nc2oc(-c3cccc(F)c3)nc12 [Example 145] |
| 108 | CCCOc1nc(CN2CCOCC2)nc2oc(-c3cc(F)c(F)cc3Cl)nc12 [Example 84] |
| 96 | Fc1cccc(-c2nc3c(OCC4CC4)nc(CC4CCOCC4)nc3o2)c1 [Example 161] |
| 60 | CCCOc1nc(Cc2ccc(Cl)cc2)nc2oc(-c3cc(C)c(OCC(O)CN(C)C)c(C)c3)nc12 (stereo not drawn) [Example 192] |
| 73 | CCCOc1nc(CN2CCCC2Cc2ccccc2)nc2oc(-c3cccc(F)c3)nc12 (stereo not drawn) [Example 143] |
| 78 | CCCOc1nc(Cn2ccnn2)nc2oc(-c3cccc(F)c3)nc12 [Example 44] |
| 108 | CCCOc1nc(Cc2ccc(Cl)cc2)nc2oc(-c3cccc(OC)c3)nc12 [Example 129] |
| 75 | CCCOc1nc(CN2C(=O)CC(C)(C)CC2=O)nc2oc(-c3cccc(F)c3)nc12 [Example 142] |
| 116 | Cc1cccc(-c2nc3c(OC4COC4)nc(CN4CCOCC4)nc3o2)c1 [Example 187] |
| 115 | CCCOc1nc(CN2CCC(F)(F)CC2)nc2oc(-c3ccc(Cl)c(F)c3)nc12 [Example 90] |
| 60 | CCCOc1nc(CCc2ccc(Cl)cc2)nc2oc(-c3cccc(F)c3)nc12 [Example 6] |
| 10 | CCCOc1nc(Cc2ccc(Cl)cc2)nc2oc(-c3cc(C)c(OCC(=O)N4CCC[C@H]4C(=O)OC(C)(C)C)c(C)c3)nc12 [Example 307] |
| 30 | CCCOc1nc(Cn2cnc(CO)c2)nc2oc(-c3cccc(F)c3)nc12 [Example 54] |
| 99 | CCOc1nc(Cc2ccc(Cl)cc2)nc2oc(-c3cccc(OCC(=O)N[C@@H](CO)C(=O)O)c3)nc12 [Example 297] |
| 82 | CCCOc1nc(CN2CCOCC2)nc2oc(-c3cncc(F)c3)nc12 [Example 39] |
| 78 | CCCOc1nc(Cc2ccc(Cl)cc2)nc2oc(-c3ccc(F)c(C)c3)nc12 [Example 172] |

| % Activation (Edg-1 receptor activation in percent of the activation by 10 μM S1P) [%] | SMILES |
| --- | --- |
| 99 | C=CCCOc1nc(Cc2ccc(Cl)cc2)nc2oc(-c3cccc(C)c3)nc12 [Example 121] |
| 114 | CCOc1nc(Cc2ccc(Cl)cc2)nc2oc(-c3cc(C)c(OCC(=O)NCCNS(C)(=O)=O)c(C)c3)nc12 [Example 290] |
| 89 | CCOc1nc(Cc2ccc(Cl)cc2)nc2oc(-c3cc(C)c(OCC(O)CS(=O)(=O)c4nnc(C5CC5)[nH]4)c(C)c3)nc12 (stereo not drawn) [Example 300] |
| 114 | CCCOc1nc(CN2CCOCC2)nc2oc(-c3cccc(C)c3)nc12 [Example 38] |
| 78 | CCOc1nc(Cc2ccc(Cl)cc2)nc2oc(-c3cc(C)c(OCC(=O)N4CCC[C@H]4C(=O)O)c(C)c3)nc12 [Example 311] |
| 120 | CCCOc1nc(CN2CCC(F)(F)CC2)nc2oc(-c3cccc(C(F)(F)F)c3)nc12 [Example 73] |
| 59 | CCCOc1nc(Cc2ccc(Cl)cc2)nc2oc(-c3cc(C)c(OCCc4c(C)noc4C)c(C)c3)nc12 [Example 235] |
| 56 | CCCOc1nc(CN2CC(=O)N(Cc3ccccc3)C2=O)nc2oc(-c3cccc(F)c3)nc12 [Example 146] |
| 82 | CCCOc1nc(CN2CCC(C(F)(F)F)CC2)nc2oc(-c3cccc(F)c3)nc12 [Example 94] |
| 69 | CCOc1nc(Cc2ccc(Cl)cc2)nc2oc(-c3cccc(OCC(=O)N4CCC[C@@H]4C(=O)O)c3)nc12 [Example 269] |
| 66 | CCOc1nc(Cc2ccc(Cl)cc2)nc2oc(-c3cc(C)c(OC)c(C)c3)nc12 [Example 190] |
| 78 | CCCOc1nc(Cc2ccc(Cl)cc2)nc2oc(-c3cccc(Cl)c3)nc12 [Example 130] |
| 68 | CCCOc1nc(Cc2ccc(Cl)cc2)nc2oc(-c3ccc(Cl)nc3)nc12 [Example 201] |
| 136 | C=CCOc1nc(Cc2ccc(Cl)cc2)nc2oc(-c3cccc(C)c3)nc12 [Example 116] |
| 97 | CCCOc1nc(Cc2ccc(Cl)cc2)nc2oc(-c3cc(C)c(OCC(=O)NCCO)c(C)c3)nc12 [Example 244] |
| 84 | CCCOc1nc(Cc2ccc(Cl)cc2)nc2oc(-c3cncc(C)c3)nc12 [Example 153] |
| 108 | CCCOc1nc(CN2CCCCC2)nc2oc(-c3cccc(F)c3)nc12 [Example 182] |
| 97 | Cc1cccc(-c2nc3c(OCC4CC4)nc(CC4CCC4)nc3o2)c1 [Example 165] |
| 116 | CCCOc1nc(CN2CCOCC2)nc2oc(-c3ccnc(Cl)c3)nc12 [Example 71] |
| 88 | CCOc1nc(Cc2ccc(Cl)cc2)nc2oc(-c3cc(C)c(OCCCS(=O)(=O)c4nnc(C(C)C)[nH]4)c(C)c3)nc12 [Example 275] |
| 91 | CCCOc1nc(Cc2ccc(Cl)cc2)nc2oc(-c3cccc(C)c3)nc12 [Example 101] |

Same assay, conditions: example compound at 10 μM; relative to 10 μM S1P; GTP-γ-S SPA, human Edg-1 membranes; read-out: % Activation (Edg-1 receptor activation in percent of the activation by 10 μM S1P)

| activation at 10 µM [%] | SMILES |
| --- | --- |
| 98 | CCCOc1nc(Cc2ccc(Cl)cc2)nc2oc(-c3cccc(F)c3)nc12 [Example 5, 5-(4-Chloro-benzyl)-2-(3-fluoro-phenyl)-7-propoxy-oxazolo[5,4-d]pyrimidine] |
| 51 | CCCOc1nc(CCc2ccc(OC)cc2)nc2oc(-c3cccc(C)c3)nc12 [Example 8, 5-[2-(4-methoxy-phenyl)-ethyl]-2-(3-methyl-phenyl)-7-propoxy-oxazolo[5,4-d]pyrimidine] |
